Experimental findings from ChEMBL document CHEMBL2413073, “Efficient construction of novel D-ring modified steroidal dienamides and their cytotoxic activities” (Eur J Med Chem, 2013) are described below.

Assay [1] has as its system MGC-803. The experiment in a line: Ratio of 5-fluorouracil IC50 to compound IC50 for human MGC803 cells. The assay is classed as functional.
For a further assay, the system named is PC-3. The experiment in a line: Cytotoxicity against human PC3 cells after 72 hrs by MTT assay. The assay is classed as functional, cell-based. Conditions: PC-3, 72 h. On the technique in general: Tetrazolium dyes change colour on reduction, which living cells bring about.
A short description of assay [2]: Cytotoxicity against human EC109 cells after 72 hrs by MTT assay. It counts as functional, cell-based. Conditions: ECa-109, 72 h.
Assay [3] has as its system SMMC-7721. Nature of the assay: Cytotoxicity against human SMMC7721 cells after 72 hrs by MTT assay. It counts as functional, cell-based. Conditions: SMMC-7721, 72 h.
In the next assay the test system is MCF7. The experiment in a line: cells. Conditions: Homo sapiens, MCF7, 72 h.
Assay [4] concerns MGC-803. The experiment in a line: Cytotoxicity against human MGC803 cells after 72 hrs by MTT assay. It counts as functional, cell-based. The settings on record: MGC-803, 72 h.
Assay [5] has as its system SMMC-7721. The experiment in a line: Ratio of 5-fluorouracil IC50 to compound IC50 for human SMMC7721 cells. The assay is classed as functional.

Description for MCF7: Cytotoxicity against human MCF7 cells after 72 hrs by MTT assay

For `CC(=O)O[C@H]1CC[C@@]2(C)C(=CC[C@@H]3[C@@H]2CC[C@]2(C)C(=C(/C#N)C(N)=O)/C(=C/c4ccco4)C[C@@H]32)C1`, the “Ratio IC50” value in the assay on MGC-803 [1] worked out at 57. Further, the half-maximal inhibitory concentration (IC50) (usually the concentration at which inhibition is half-maximal) with PC-3 worked out at 23.4 µM; in assay [2], 39.4 µM; in the assay on SMMC-7721 [3], 22.9 µM; in the assay on MCF7 it was 39.4 µM; in the assay with MGC-803 [4], 0.12 µM.
Take `C[C@]12CC[C@H](O)CC1=CC[C@@H]1[C@@H]2CC[C@]2(C)C(=C(/C#N)C(N)=O)/C(=C/c3ccc(F)cc3)C[C@@H]12`: the IC50 in the assay with PC-3 was determined as 14.6 µM; in assay [2], 8.69 µM; with SMMC-7721 [3] it was 3.34 µM; in the assay on MCF7, 5.92 µM; with MGC-803 [4] it was 5.67 µM.
For `CC(=O)O[C@H]1CC[C@@]2(C)C(=CC[C@@H]3[C@@H]2CC[C@]2(C)C(=C(/C#N)C(N)=O)/C(=C/c4ccccc4)C[C@@H]32)C1`, in that order: 12.8 µM, 11.7 µM, 5.03 µM, 7.47 µM and 3.1 µM.
On to `CC(=O)O[C@H]1CC[C@@]2(C)C(=CC[C@@H]3[C@@H]2CC[C@]2(C)C(=C(/C#N)C(N)=O)/C(=C/c4ccc(C(C)C)cc4)C[C@@H]32)C1`, for which the IC50 in the assay with PC-3 was found to be 13.5 µM; in assay [2] it was 10 µM; in the assay with SMMC-7721 [3], 9.3 µM; in the assay with MCF7 it was 15.3 µM; with MGC-803 [4], 1.09 µM.
For `CC(=O)O[C@H]1CC[C@@]2(C)C(=CC[C@@H]3[C@@H]2CC[C@]2(C)C(=C(/C#N)C(N)=O)/C(=C/c4ccccc4F)C[C@@H]32)C1`, in that order: 11.4 µM, 15.6 µM, 15.4 µM, 4.66 µM and 2.99 µM.
`CC(=O)O[C@H]1CC[C@@]2(C)C(=CC[C@@H]3[C@@H]2CC[C@]2(C)C(=C(/C#N)C(N)=O)/C(=C/c4ccc(C)cc4)C[C@@H]32)C1`: the IC50 in the assay on PC-3 came out at 22.9 µM; in assay [2], 12 µM; in the assay on SMMC-7721 [3], 18.6 µM; with MCF7, 6.35 µM; in the assay on MGC-803 [4], 8.1 µM.
Turning to `COc1cc(/C=C2\C[C@H]3[C@@H]4CC=C5C[C@@H](OC(C)=O)CC[C@]5(C)[C@H]4CC[C@]3(C)\C2=C(\C#N)C(N)=O)cc(OC)c1OC`, the IC50 was found to be 11.7 µM in the assay on PC-3; 5.28 µM in assay [2]; 2.82 µM in the assay on SMMC-7721 [3]; 5.23 µM in the assay with MCF7; 6.34 µM with MGC-803 [4].
For `CC(=O)O[C@H]1CC[C@@]2(C)C(=CC[C@@H]3[C@@H]2CC[C@]2(C)C(=C(/C#N)C(N)=O)/C(=C/c4ccc(F)cc4)C[C@@H]32)C1`, in that order: 9.17 µM, 4.78 µM, 5.9 µM, 3.67 µM and 3.11 µM.
For `COc1cccc(/C=C2\C[C@H]3[C@@H]4CC=C5C[C@@H](O)CC[C@]5(C)[C@H]4CC[C@]3(C)\C2=C(\C#N)C(N)=O)c1`, the IC50 with PC-3 amounted to 14 µM; in assay [2], 9.27 µM; in the assay with SMMC-7721 [3], 6.09 µM; in the assay on MCF7 it was 5.57 µM; in the assay with MGC-803 [4] it was 3.96 µM.
As to `COc1cccc(/C=C2\C[C@H]3[C@@H]4CC=C5C[C@@H](OC(C)=O)CC[C@]5(C)[C@H]4CC[C@]3(C)\C2=C(\C#N)C(N)=O)c1`, the IC50 in the assay on PC-3 is 13 µM; in assay [2] it was 7.04 µM; with SMMC-7721 [3], 11.5 µM; in the assay with MCF7 it was 8.36 µM; in the assay with MGC-803 [4], 2.19 µM.
Regarding `O=c1[nH]cc(F)c(=O)[nH]1` [FLUOROURACIL], the IC50 in the assay with PC-3 is 24.8 µM; in assay [2], 10.6 µM; with SMMC-7721 [3], 9.78 µM.
With `CC(=O)O[C@H]1CC[C@@]2(C)C(=CC[C@@H]3[C@@H]2CC[C@]2(C)C(=C(/C#N)C(N)=O)/C(=C/c4ccc(Br)cc4)C[C@@H]32)C1`, the IC50 amounted to 26.8 µM with PC-3; 5.3 µM in assay [2]; 16.5 µM with SMMC-7721 [3]; 2.95 µM in the assay with MCF7; 2.71 µM in the assay with MGC-803 [4].
Take `CC(=O)O[C@H]1CC[C@@]2(C)C(=CC[C@@H]3[C@@H]2CC[C@]2(C)C(=C(/C#N)C(N)=O)/C(=C/c4cccc(Cl)c4)C[C@@H]32)C1`: the IC50 with PC-3 was determined as 11.3 µM; in assay [2], 8.97 µM; in the assay with SMMC-7721 [3] it was 7.12 µM; in the assay with MCF7 it was 8.01 µM; in the assay with MGC-803 [4], 0.11 µM.
For `C[C@]12CC[C@H](O)CC1=CC[C@@H]1[C@@H]2CC[C@]2(C)C(=C(/C#N)C(N)=O)/C(=C/c3ccc(Cl)c(Cl)c3)C[C@@H]12`, in that order: 8.84 µM, 8.61 µM, 3.34 µM, 2.41 µM and 5.11 µM.
For `CC(=O)O[C@H]1CC[C@@]2(C)C(=CC[C@@H]3[C@@H]2CC[C@]2(C)C(=C(/C#N)C(N)=O)/C(=C/c4ccccc4Cl)C[C@@H]32)C1`, in that order: 24.3 µM, 11.9 µM, 18.4 µM, 6.27 µM and 0.58 µM.
`C[C@]12CC[C@H](O)CC1=CC[C@@H]1[C@@H]2CC[C@]2(C)C(=C(/C#N)C(N)=O)/C(=C/c3ccccc3F)C[C@@H]12`: the IC50 amounted to 13.3 µM with PC-3; 14.6 µM in assay [2]; 1.9 µM with SMMC-7721 [3]; 6.58 µM with MCF7; 2.69 µM in the assay with MGC-803 [4]. For the same compound, the “Ratio IC50” value with SMMC-7721 [5] is 5.
`C[C@]12CC[C@H](O)CC1=CC[C@@H]1[C@@H]2CC[C@]2(C)C(=C(/C#N)C(N)=O)/C(=C/c3ccccc3Cl)C[C@@H]12`: the IC50 stood at 16.9 µM with PC-3; 13.2 µM in assay [2]; 3.63 µM in the assay with SMMC-7721 [3]; 5.34 µM with MCF7; 5.13 µM in the assay on MGC-803 [4].
For `COc1cc(/C=C2\C[C@H]3[C@@H]4CC=C5C[C@@H](O)CC[C@]5(C)[C@H]4CC[C@]3(C)\C2=C(\C#N)C(N)=O)cc(OC)c1OC`, in that order: 12.2 µM, 8.72 µM, 7.94 µM, 6.54 µM and 1.83 µM.
On to `CC(=O)O[C@H]1CC[C@@]2(C)C(=CC[C@@H]3[C@@H]2CC[C@]2(C)C(=C(/C#N)C(N)=O)/C(=C/c4ccccc4C#N)C[C@@H]32)C1`, for which the IC50 in the assay with MCF7 came to 22.4 µM.
In the case of `CC(=O)O[C@H]1CC[C@@]2(C)C(=CC[C@@H]3[C@@H]2CC[C@]2(C)C(=C(/C#N)C(N)=O)/C(=C/c4ccc(F)c(F)c4)C[C@@H]32)C1`, the IC50 was 8.48 µM in the assay with PC-3; 3.05 µM in assay [2]; 5.66 µM with SMMC-7721 [3]; 4.77 µM in the assay with MCF7; 1.56 µM with MGC-803 [4].
For `CC(=O)O[C@H]1CC[C@@]2(C)C(=CC[C@@H]3[C@@H]2CC[C@]2(C)C(=C(/C#N)C(N)=O)/C(=C/c4ccc(Cl)c(Cl)c4)C[C@@H]32)C1`, in that order: 8.18 µM, 4.37 µM, 2.55 µM, 2.21 µM and 3.2 µM.
For `CC(=O)O[C@H]1CC[C@@]2(C)C(=CC[C@@H]3[C@@H]2CC[C@]2(C)C(=C(/C#N)C(N)=O)/C(=C/c4ccc(Cl)cc4Cl)C[C@@H]32)C1`, in that order: 24.3 µM, 5.24 µM, 5.04 µM, 3.98 µM and 7.38 µM.
For the compound `CC(=O)O[C@H]1CC[C@@]2(C)C(=CC[C@@H]3[C@@H]2CC[C@]2(C)C(=C(/C#N)C(N)=O)/C(=C/c4cccs4)C[C@@H]32)C1`, in the assay on MGC-803 [1], the “Ratio IC50” value is recorded as 45. The IC50 with PC-3 worked out at 20.4 µM; in assay [2] it was 20.3 µM; in the assay on SMMC-7721 [3], 20.4 µM; in the assay with MCF7, 22.8 µM; with MGC-803 [4] it was 0.15 µM.
